Assay results taken from the supplement of paper PMC13380429.

What was measured:
Conditions in all cases: 72 h
[1] = tested on: Calu-3; assay: relative viability EC50 (midpoint between 100% and the lowest measured viability); higher = less toxic
[2] = tested on: HepG2; assay: as above
[3] = tested on: Caco-2; assay: as above
[4] = tested on: Vero E6; assay: as above
[5] = tested on: U2OS; assay: as above
[6] = tested on: Calu-3; assay: drug sensitivity score (DSS) for viability; higher = more toxic; extreme values may be limits of the assay
[7] = tested on: HepG2; assay: as above
[8] = tested on: Caco-2; assay: as above
[9] = tested on: Vero E6; assay: as above
[10] = tested on: U2OS; assay: as above
[11] = tested on: Calu-3; assay: cell viability relative to DMSO; higher = less toxic
[12] = tested on: HepG2; assay: as above
[13] = tested on: Caco-2; assay: as above
[14] = tested on: Vero E6; assay: as above
[15] = tested on: U2OS; assay: as above

Row | Compound | relative viability EC50 [1] [µM] | relative viability EC50 [2] [µM] | relative viability EC50 [3] [µM] | relative viability EC50 [4] [µM] | relative viability EC50 [5] [µM] | drug sensitivity score [6] | drug sensitivity score [7] | drug sensitivity score [8] | drug sensitivity score [9] | drug sensitivity score [10] | cell viability ([11]; 1 nM) [%] | cell viability ([11]; 10 nM) [%] | cell viability ([11]; 100 nM) [%] | cell viability ([11]; 1000 nM) [%] | cell viability ([11]; 10000 nM) [%] | cell viability ([12]; 1 nM) [%] | cell viability ([12]; 10 nM) [%] | cell viability ([12]; 100 nM) [%] | cell viability ([12]; 1000 nM) [%] | cell viability ([12]; 10000 nM) [%] | cell viability ([13]; 1 nM) [%] | cell viability ([13]; 10 nM) [%] | cell viability ([13]; 100 nM) [%] | cell viability ([13]; 1000 nM) [%] | cell viability ([13]; 10000 nM) [%] | cell viability ([14]; 1 nM) [%] | cell viability ([14]; 10 nM) [%] | cell viability ([14]; 100 nM) [%] | cell viability ([14]; 1000 nM) [%] | cell viability ([14]; 10000 nM) [%] | cell viability ([15]; 1 nM) [%] | cell viability ([15]; 10 nM) [%] | cell viability ([15]; 100 nM) [%] | cell viability ([15]; 1000 nM) [%] | cell viability ([15]; 10000 nM) [%]
1 | CC(=O)Nc1c(I)c(C(=O)O)c(I)c(N(C)C(C)=O)c1I [metrizoic-acid] | > 10 | > 10 | > 10 | > 10 | > 10 | 0 | 0 | 0 | 0 | 0 | 96.6 | 103 | 98.3 | 94.9 | 107 | 107 | 104 | 105 | 96.6 | 110 | 92 | 102 | 94 | 97.3 | 92.8 | 104 | 98.6 | 105 | 98.8 | 101 | 97.6 | 105 | 95.9 | 105 | 96.5
2 | O=C(O)[C@H]1CN(CCCP(=O)(O)O)CCN1 [CPP] | > 10 | > 10 | > 10 | > 10 | > 10 | 0.2 | 0 | 0 | 0 | 0 | 102 | 104 | 92.6 | 89.4 | 90.5 | 96.6 | 112 | 98.6 | 103 | 104 | 97 | 101 | 103 | 101 | 94.5 | 99.2 | 103 | 99.8 | 102 | 102 | 103 | 106 | 101 | 101 | 99.8
3 | COc1cccc(C(=O)CCN[C@@H](C)[C@H](O)c2ccccc2)c1 [oxyfedrine] | > 10 | > 10 | > 10 | > 10 | > 10 | 0 | 1.3 | 0 | 0 | 0 | 86.3 | 98.6 | 113 | 95.6 | 107 | 101 | 105 | 98.9 | 91.3 | 79.8 | 99.3 | 101 | 108 | 102 | 95.8 | 103 | 99.8 | 99.2 | 104 | 101 | 97.8 | 103 | 98.5 | 99.9 | 95.4
